In the NIST ThermoML archive (doi:10.1016/j.tca.2012.10.004):
Numbers after ± are expanded uncertainties.

What was measured:
[1] = 101 kPa, Liquid, Pycnometric method
[2] = refractive index (Na D-line) (dimensionless); settings: 101.33 kPa, Liquid, Standard Abbe refractometry
[3] = relative permittivity at zero frequency (dimensionless); settings: 101 kPa, Liquid, Coaxial cylinder capacitor
[4] = xn = mol fraction of the nth substance listed; settings: 101 kPa, Liquid, Pycnometric method, x2 = 0
[5] = refractive index (Na D-line) (dimensionless); xn = mol fraction of the nth substance listed; settings: 101 kPa, Liquid, Standard Abbe refractometry, x2 = 0
[6] = relative permittivity at zero frequency (dimensionless); xn = mol fraction of the nth substance listed; settings: 101 kPa, Liquid, Coaxial cylinder capacitor, x2 = 0

CN(CCO)CCO [N-methyldiethanolamine]
Settings	mass density, [1] [kg/m3]	refractive index, [2]	relative permittivity at zero frequency, [3]
293.15 K	1041.6 ± 0.5	1.46935 ± 0.00037	22.9 ± 0.9
298.15 K	1037.9 ± 0.5	1.46724 ± 0.00037	22.4 ± 0.9
303.15 K	1034.1 ± 0.5	1.46532 ± 0.00037	21.8 ± 0.9
308.15 K	1030.3 ± 0.5	1.4631 ± 0.00037	21.3 ± 0.9
313.15 K	1026.5 ± 0.5	1.46074 ± 0.00037	20.8 ± 0.8
318.15 K	1022.7 ± 0.5	1.45892 ± 0.00037	20.3 ± 0.8
323.15 K	1018.9 ± 0.5	1.45708 ± 0.00037	19.8 ± 0.8
328.15 K	1015 ± 0.5	1.45513 ± 0.00037	19.3 ± 0.8

O=S1(=O)CCCC1 [sulfolane]
Settings	mass density, [1] [kg/m3]	refractive index, [2]	relative permittivity at zero frequency, [3]
293.15 K	1270.8 ± 0.6	1.4854 ± 0.00037	44.5 ± 1.8
298.15 K	1266.5 ± 0.6	1.4836 ± 0.00037	44 ± 1.8
303.15 K	1262 ± 0.7	1.4814 ± 0.00037	43.4 ± 1.7
308.15 K	1257.6 ± 0.7	1.4796 ± 0.00037	42.8 ± 1.7
313.15 K	1253.2 ± 0.7	1.478 ± 0.00037	42.2 ± 1.7
318.15 K	1248.7 ± 0.7	1.4762 ± 0.00037	41.6 ± 1.7
323.15 K	1244.2 ± 0.7	1.4744 ± 0.00037	41.1 ± 1.6
328.15 K	1240.3 ± 0.7	1.4726 ± 0.00037	40.4 ± 1.6

O=S1(=O)CCCC1 [sulfolane] + CN(CCO)CCO
Settings	mass density, [4] [kg/m3]	refractive index, [5]	relative permittivity at zero frequency, [6]
293.15 K	1270.8 ± 0.6	1.4854 ± 0.00037	44.5 ± 1.8
298.15 K	1266.5 ± 0.6	1.4836 ± 0.00037	44 ± 1.8
303.15 K	1262 ± 0.7	1.4814 ± 0.00037	43.4 ± 1.7
308.15 K	1257.6 ± 0.7	1.4796 ± 0.00037	42.8 ± 1.7
313.15 K	1253.2 ± 0.7	1.478 ± 0.00037	42.2 ± 1.7
318.15 K	1248.7 ± 0.7	1.4762 ± 0.00037	41.6 ± 1.7
323.15 K	1244.2 ± 0.7	1.4744 ± 0.00037	41.1 ± 1.6
328.15 K	1240.3 ± 0.7	1.4726 ± 0.00037	40.4 ± 1.6
